{"source": "paper PMC3328449", "about": "“Inhibition of Diacylglycerol–Sensitive TRPC Channels by Synthetic and Natural Steroids” (PLoS ONE, 2012)", "origin": "cited, not measured here", "key": {"other TRPC channels": {"tested_on": "other TRPC channels", "set-up": "method as in PMID 19289841", "details": "cited from earlier work"}, "TRPC3": {"tested_on": "TRPC3", "set-up": "method as in PMID 19289841", "details": "read-out: half maximal inhibitory concentration (IC50), TRPC3; cited from earlier work"}}, "data": [{"smiles": "CCOC(=O)c1cnn(-c2ccc(NC(=O)C(Cl)=C(Cl)Cl)cc2)c1C(F)(F)F", "note": "[Pyr3]", "values": [{"measurement": "Effects on other TRPC channels", "setting": "other TRPC channels", "result": "without having effects"}, {"measurement": "IC50", "setting": "TRPC3", "result": 700, "unit": "nM"}]}]}
